Test results taken from patent publication US20060128792A1, “Deguelin as a chemopreventive agent for lung cancer” (priority 2002, published 2006).
Where “and” joins values, the source holds several entries; their conditions need not be identical. Identical values can stand only once.

Tests used:
Assay type in all cases: cell-based
[1] = tested on: PI3K; experiment: PI3K assay (lipid kinase assay on immunoprecipitate of treated cells); settings: 1799 cells, 10^−7 M deguelin, 1 day
Experimental: PI3K Assay. 1799 cells cultured in KSFM containing 10^−7 M deguelin for different time periods were lysed in lysis buffer. PI3K was immunoprecipitated from 500 μg of cellular protein using pan-anti-p85 antibody (Upstate Biotechnology, Waltham, Mass.), which coprecipitates the p110 catalytic subunit of PI3K, and subsequent lipid kinase assay was performed as described previously (Sibilia et al., 2000). Briefly, the mixture was incubated with gentle rocking at 4° C. for 12 h, 10 mg of protein A-sepharose (Amersham Pharmacia Biotech) were added, and the incubation was continued for another 2 h. The immunoprecipitates were washed, in tandem, three times with lysis buffer, twice with 0.1 M Tris/HCl, pH 7.5, containing 0.5 M LiCl, and 10 μM sodium vanadate, and twice with 10 mM Tris/HCl, pH 7.5, containing 100 MM NaCl, 10 μM sodium vanadate, and 1 mM EDTA. Adequate amounts of the washed antibody conjugates, in 10 μl, were added to 80 μl of 30 mM Hepes, pH 7.5, containing 125 μM ATP, 10 μCi of [α-^32P] ATP, and 6.25 mM MgCl2, and the reaction was initiated by adding 20 μg of bovine brain extract (Type 1; Sigma) suspended in 10 μl of 30 mM Hepes, pH 7.5. […] The autoradiograms were scanned by a Photodyne image system and quantified using the NIH Image program (version 1.59).

[2] = tested on: H596; experiment: MTT assay, growth inhibition by deguelin or deguelin derivatives; settings: H596, 3 days
[3] = tested on: NSCLC cells; experiment: MTT assay, growth inhibition of NSCLC cells by deguelin and deguelin derivatives (Table 2, FIG. 7); settings: 72 h, depending on the cell line, 3 days
[4] = tested on: pAkt (Ser473) and pGSK-3β (Ser9) in squamous HBE cells; experiment: Western blot of pAkt (Ser473) and pGSK-3β (Ser9); settings: time-dependent
Experimental: Immunoblotting. Whole cell lysates were prepared in lysis buffer (50 mM N-[2-[…]]-piperazine-N′-[2-ethanesulfonic acid] [HEPES; pH 7.5], 150 mM NaCl, 1.5 mM MgCl2, ImM EDTA, 0.2 mM EGTA, 1% NP40, 10% glycerol, 1 mM dithiothreitol (DTT), 1 mM phenylmethylsulfonyl fluoride, 20 mM sodium fluoride, 5 mM sodium orthovanadate, 10 μg/ml aprotinin, 10 μg/ml leupeptin, 2 μg/ml pepstatin, and 1 mM benzamidine) as described previously (Lee et al., 2002). Equivalent protein concentrations were resolved in sodium dodecyl sulfate-polyacrylamide gels and transferred to a nitrocellulose membrane. After the blocking of transblotted membrane in Tris-buffered saline (TBS) containing 0.05% Tween 20 (TBST) and 5% low fat milk, themembrane was incubated with primary antibody at the appropriate dilution in TBS-5% low-fat milk at 4° C. for 16 h and washed with TBST. The immunoblots were visualized using the ECL kit (Amersham, Inc., Arlington Heights, III) according to the manufacturer's directions. Rabbit polyclonal antibodies against human pAkt (Ser473), Akt, and pGSK-3β (Ser9), and mouse monoclonal antibody against human anti-pMAPK (Thr202/Tyr204) were purchased from Cell Signalinng Technology (Beverly, Mass.). […]
Effects of Deguelin on Squamous Differentiated HBE Cells. […] It was then determined whether deguelin inhibits the activation of PI3K/Akt pathway in squamous HBE cells. […]

[5] = tested on: Cal1; experiment: MTT assay, growth inhibition by deguelin or deguelin derivatives; settings: 3 days

COc1cc2c(cc1OC)[C@@H]1C(=O)c3ccc4c(c3O[C@@H]1CO2)C=CC(C)(C)O4 [Deguelin]
PI3K activity (lipid kinase assay) [1]: decreased
Avg. % con ([2]; deguelin 10^−6M): 0.62 % con
MTT value, mean of replicates (unheaded line) ([2]; deguelin 10^−6M): 0.290
MTT value, replicate (unheaded line) ([2]; deguelin 10^−6M): 0.29 and 0.298 and 0.281
Avg. % con ([2]; deguelin 10^−8M): 0.67 % con
MTT value, mean of replicates (unheaded line) ([2]; deguelin 10^−8M): 0.314
MTT value, replicate (unheaded line) ([2]; deguelin 10^−8M): 0.324 and 0.311 and 0.307
Avg. % con ([2]; deguelin 10^−10M): 0.67 % con
MTT value, mean of replicates (unheaded line) ([2]; deguelin 10^−10M): 0.313
MTT value, replicate (unheaded line) ([2]; deguelin 10^−10M): 0.314 and 0.338 and 0.287
Avg. % con ([2]; deguelin 10^−12M): 0.76 % con
MTT value, mean of replicates (unheaded line) ([2]; deguelin 10^−12M): 0.358
MTT value, replicate (unheaded line) ([2]; deguelin 10^−12M): 0.386 and 0.372 and 0.317
IC50 [3]: 0.1 to 1 µM
elevated levels of pAkt (Ser473) and pGSK-3β (Ser9) [4]: down-regulated
Avg. % con ([5]; deguelin 10^−6M): 0.54 % con
MTT value, mean of replicates (unheaded line) ([5]; deguelin 10^−6M): 0.132
MTT value, replicate (unheaded line) ([5]; deguelin 10^−6M): 0.13 and 0.128 and 0.138
Avg. % con ([5]; deguelin 10^−8M): 0.88 % con
MTT value, mean of replicates (unheaded line) ([5]; deguelin 10^−8M): 0.214
MTT value, replicate (unheaded line) ([5]; deguelin 10^−8M): 0.204 and 0.221 and 0.216
Avg. % con ([5]; deguelin 10^−10M): 1.16 % con
MTT value, mean of replicates (unheaded line) ([5]; deguelin 10^−10M): 0.281
MTT value, replicate (unheaded line) ([5]; deguelin 10^−10M): 0.29 and 0.294 and 0.26
Avg. % con ([5]; deguelin 10^−12M): 1.30 % con
MTT value, mean of replicates (unheaded line) ([5]; deguelin 10^−12M): 0.317
MTT value, replicate (unheaded line) ([5]; deguelin 10^−12M): 0.305 and 0.328 and 0.319
